Assay results from ChEMBL document CHEMBL1857833, “Screening and optimization of specific chemical series against human African Trypanosomiasis (HAT)”.
≈ marks a conversion by molar mass, not a printed value.

Columns and labels:
[1] = DNDI: Cytotoxicity against L929 mouse fibroblasts, 72 hour.; type: toxicity, cell-based; conditions: mouse, L929 mouse fibroblasts
[2] = tested on: Trypanosoma brucei; assay: DNDI: Inhibition of Human African Trypanosomiasis, SBRI 427, in vitro; type: functional, organism-based
[3] = mouse, microsomes, 1 µM
Description: DNDI: in vitro intrinsic clearance in mouse liver microsomes at a concentration of 1uM

[4] = in vitro; conditions: mouse, liver microsomes, t (1 / 2)
Description: DNDI: half life in mouse liver microsomes at a concentration of 1uM

[5] = DNDI: Cytotoxicity against L929 mouse fibroblasts, CYTO-SP, 24 hour; type: toxicity, cell-based; conditions: mouse, L929 mouse fibroblasts
[6] = Trypanosoma brucei, SBRI 427, read-out: IC50

Compound | IC50 [2, 6] [µg/mL] | CLint in vitro [3] [µL/min/mg] | half-life at 1 µM [4] [min] | IC50 [2] [µg/mL] | IC50 at 72 h [1] [µg/mL] | IC50 at 24 h [5] [µg/mL]
CC(C)(C)CNCc1coc(-c2ccc(OCC(C)(C)C)cc2)n1 | 0.42 (≈ 1.27 µM) | 3 | 267 |  | 1.35 (≈ 4.09 µM) | 
c1cc(-c2nc(CNC3CCCCCC3)co2)ccc1OC1CCCCC1 | 0.43 (≈ 1.17 µM) | 11 | 78 |  | 1.29 (≈ 3.5 µM) | 
Cc1ccc(/C(=N/O)NC2CCCCC2)c(Oc2c(F)cccc2F)n1 | 1.05 (≈ 2.91 µM) | 255 | 3 |  | > 10 | 
O/N=C(\NC1CCCCC1)c1ccccc1Cc1ccccc1 | 1.19 (≈ 3.86 µM) | 381 | 2 |  | 4.57 (≈ 14.8 µM) | 
COc1ccc(/C(=N/O)Nc2cccc(-c3ccccc3)c2)cc1 |  | 66 | 13 |  | > 10 | 
COc1ccccc1CNC(CCc1ccccc1)c1nc(-c2ccccc2)c(N2CCOCC2)o1 (stereo not drawn) | 4.15 (≈ 8.58 µM) | 344 | 2 |  | > 10 | 
Clc1ccc(-c2nc(CNC3CC4CCC3C4)co2)cc1 (stereo not drawn) | 2.81 (≈ 9.28 µM) |  |  |  | 3.47 (≈ 11.5 µM) | 40.7 (≈ 134 µM)
CCCCc1ccc(-c2nc(C(F)(F)F)co2)cc1 | > 5 |  |  |  | 43.8 (≈ 163 µM) | > 50
Clc1ccc(-c2nc(CNC3CCCC3)co2)cc1 | 4.78 (≈ 17.3 µM) |  |  |  | 12.9 (≈ 46.8 µM) | > 50
CCOc1ccc(-c2nc(CN(C)Cc3coc(-c4ccc(OCC)cc4)n3)co2)cc1 | > 5 |  |  |  | > 50 | > 50
CCCCc1ccc(-c2nc(CN3CCN(C)CC3)co2)cc1 | 2.22 (≈ 7.08 µM) | 31 | 27 |  | 3.75 (≈ 12 µM) | 
Clc1ccc(-c2nc(CN[C@]34C[C@H]5C[C@H](C[C@H](C5)C3)C4)co2)cc1 | > 5 |  |  |  | 37.6 (≈ 110 µM) | > 50
Clc1ccc(-c2nc(CNc3ccccc3)co2)cc1 | > 5 |  |  |  | 10.5 (≈ 36.9 µM) | > 50
C[C@@H](NCc1coc(-c2ccc(Cl)cc2)n1)C1CCCCC1 | 1.74 (≈ 5.46 µM) |  |  |  | < 3.13 | > 50
O=C(O)c1coc(-c2ccccc2)n1 | > 5 |  |  |  | > 50 | > 50
CCOc1ccc(-c2nc(CCl)co2)cc1 | 2.19 (≈ 9.21 µM) |  |  |  | 25.9 (≈ 109 µM) | > 5
CC1(C)[C@H]2CC[C@@H](CNCc3coc(-c4sccc4Cl)n3)[C@@H]1C2 | > 5 |  |  |  | > 50 | > 50

Compound | IC50 [2, 6] [µg/mL] | CLint in vitro [3] [µL/min/mg] | half-life at 1 µM [4] [min] | IC50 [2] [µg/mL] | IC50 at 72 h [1] [µg/mL] | IC50 at 24 h [5] [µg/mL]
CCCCc1ccc(-c2nc(-c3ccccc3)co2)cc1 | > 5 |  |  |  | 26.6 (≈ 96 µM) | > 50
Clc1ccsc1-c1nc(CNC2CCCCCC2)co1 | > 5 |  |  |  | 11.8 (≈ 38.1 µM) | > 50
CCOc1ccc(-c2nc(CNC3C[C@@H]4C[C@H]([C@@H]3C)C4(C)C)co2)cc1 (stereo partly drawn) | > 5 |  |  |  | 3.64 (≈ 10.3 µM) | > 50
CCOc1ccc(-c2nc(CNC3CC4CCC3C4)co2)cc1 (stereo not drawn) | 4.1 (≈ 13.1 µM) |  |  |  | 4.62 (≈ 14.8 µM) | 35 (≈ 112 µM)
CCCOc1ccc(-c2nc(CNC3CC(C)CC(C)(C)C3)co2)cc1 (stereo not drawn) | 1.37 (≈ 3.84 µM) |  |  |  | < 3.13 | 15.9 (≈ 44.5 µM)
CCCCC[C@@H](C)N(Cc1coc(-c2ccc(Cl)cc2)n1)Cc1coc(-c2ccc(Cl)cc2)n1 | > 5 |  |  |  | > 50 | > 50
C[C@@H]1[C@H]2C[C@@H](C[C@H]1NCc1coc(-c3sccc3Cl)n1)C2(C)C | > 5 |  |  |  | > 50 | > 50
CCCOc1ccc(-c2nc(CNC3[C@H]4C[C@@H]5C[C@@H](C[C@H]3C5)C4)co2)cc1 (stereo partly drawn) | 0.69 (≈ 1.88 µM) |  |  |  | 3.67 (≈ 10 µM) | > 50
CCCOc1ccc(-c2nc(CNC[C@@H]3CC[C@H]4C[C@@H]3C4(C)C)co2)cc1 | 0.74 (≈ 2.01 µM) |  |  |  | < 3.13 | 16 (≈ 43.5 µM)
CC1(C)[C@H]2CC[C@@H](CNCc3ccc(-c4ccccc4)s3)[C@@H]1C2 | 1.02 (≈ 3.13 µM) |  |  |  | 6.63 (≈ 20.4 µM) | > 50
CC1CC(NCc2coc(-c3sccc3Cl)n2)CC(C)(C)C1 (stereo not drawn) | > 5 |  |  |  | > 50 | > 50
CCOc1ccc(-c2nc(CNCc3ccccc3)co2)cc1 | > 5 |  |  |  | 18.1 (≈ 58.6 µM) | > 50
Clc1ccsc1-c1nc(CNC2[C@H]3C[C@@H]4C[C@@H](C[C@H]2C4)C3)co1 (stereo partly drawn) | > 5 |  |  |  | 10.6 (≈ 30.3 µM) | > 50
CN(Cc1coc(-c2ccc(Cl)cc2)n1)C1CCCCC1 | 2.7 (≈ 8.86 µM) |  |  |  | 11.4 (≈ 37.4 µM) | > 50
CCOc1ccc(-c2nc(CN[C@]34C[C@H]5C[C@H](C[C@H](C5)C3)C4)co2)cc1 | > 5 |  |  |  | 28.4 (≈ 80.5 µM) | > 50
COc1ccc(Oc2ncccc2/C(=N/O)NC2CCCCC2)cc1 | 0.29 (≈ 0.849 µM) |  |  | 0.33 (≈ 0.967 µM) | > 10 | > 50

Second part, led by results:

IC50 [2, 6] [µg/mL] | CLint in vitro [3] [µL/min/mg] | half-life at 1 µM [4] [min] | IC50 [2] [µg/mL] | Compound | IC50 at 72 h [1] [µg/mL] | IC50 at 24 h [5] [µg/mL]
0.89 (≈ 3.44 µM) | 76 | 11 |  | CCCCc1ccc(-c2nc(CNCC)co2)cc1 | 5.42 (≈ 21 µM) | 
0.3 (≈ 0.793 µM) | 12 | 70 |  | CCCCCC(C)NCc1coc(-c2ccc(Oc3ccc(C)cc3)cc2)n1 (stereo not drawn) | 1.42 (≈ 3.75 µM) | 
> 5 |  |  |  | CCCCCC(C)NC(=O)c1coc(-c2ccccc2)n1 (stereo not drawn) | 27.2 (≈ 95 µM) | > 50
2.64 (≈ 9.15 µM) |  |  |  | CCCCCC(C)NCc1csc(-c2ccccc2)n1 (stereo not drawn) | 4.45 (≈ 15.4 µM) | 18 (≈ 62.4 µM)
1.09 (≈ 3.38 µM) |  |  |  | CCCCCC(C)NCc1coc(-c2ccc3ccccc3c2)n1 (stereo not drawn) | 5.65 (≈ 17.5 µM) | 17 (≈ 52.7 µM)
3.33 (≈ 11.6 µM) |  |  |  | CCCCCC(C)NCc1coc(-c2cccc(C)c2)n1 (stereo not drawn) | 7.13 (≈ 24.9 µM) | 16 (≈ 55.9 µM)
0.34 (≈ 0.852 µM) | 3 | 313 |  | CCCCCC(C)NCc1coc(-c2ccc(Oc3ccc(Cl)cc3)cc2)n1 (stereo not drawn) | 2.07 (≈ 5.19 µM) | 
3.56 (≈ 12.3 µM) |  |  |  | CCCCCC(C)NCc1coc(-c2ccccc2O)n1 (stereo not drawn) | 7.32 (≈ 25.4 µM) | 24 (≈ 83.2 µM)
0.37 (≈ 1.02 µM) | 11 | 75 |  | CCCCCC(C)NCc1coc(-c2ccc(OCCCC)c(F)c2)n1 (stereo not drawn) | 0.73 (≈ 2.01 µM) | 
2.42 (≈ 7.89 µM) |  |  |  | CCCCCC(C)NCc1coc(-c2ccccc2Cl)n1 (stereo not drawn) | 7.17 (≈ 23.4 µM) | 17 (≈ 55.4 µM)
0.88 (≈ 2.57 µM) | 9 | 98 |  | CCCCCC(C)NCc1coc(-c2ccc(OC3CCC3)cc2)n1 (stereo not drawn) | 2.36 (≈ 6.89 µM) | 
> 5 |  |  |  | CCCCc1ccc(-c2nc(C)co2)cc1 | 42.1 (≈ 195 µM) | > 50
1.48 (≈ 4.15 µM) |  |  |  | CCCCCC(C)NCc1coc(-c2ccccc2OC(F)(F)F)n1 (stereo not drawn) | 3.23 (≈ 9.06 µM) | 37 (≈ 104 µM)
2.14 (≈ 7.37 µM) |  |  |  | CCCCCC(C)NCc1coc(-c2cccc(F)c2)n1 (stereo not drawn) | 7.19 (≈ 24.8 µM) | 19 (≈ 65.4 µM)
1.36 (≈ 4.14 µM) |  |  |  | CCCCCC(C)NCc1coc(-c2cc3ccccc3s2)n1 (stereo not drawn) | 3.46 (≈ 10.5 µM) | > 50
3.83 (≈ 13.8 µM) |  |  |  | CCCCCC(C)NCc1coc(-c2cccs2)n1 (stereo not drawn) | 13.5 (≈ 48.6 µM) | > 50
1.35 (≈ 4.8 µM) |  |  |  | CCCCCC(C)NCc1ccccc1-c1ccccc1 (stereo not drawn) | 4.68 (≈ 16.6 µM) | > 50

IC50 [2, 6] [µg/mL] | CLint in vitro [3] [µL/min/mg] | half-life at 1 µM [4] [min] | IC50 [2] [µg/mL] | Compound | IC50 at 72 h [1] [µg/mL] | IC50 at 24 h [5] [µg/mL]
2.71 (≈ 9.33 µM) |  |  |  | CCCCCC(C)NCc1coc(-c2ccc(F)cc2)n1 (stereo not drawn) | 7.1 (≈ 24.5 µM) | 17 (≈ 58.5 µM)
5 (≈ 18.4 µM) |  |  |  | CCCCCC(C)NCc1cc(-c2ccccc2)on1 (stereo not drawn) | 12.9 (≈ 47.3 µM) | 32 (≈ 117 µM)
1.76 (≈ 5.74 µM) |  |  |  | CCCCC[C@H](C)NCc1coc(-c2ccc(Cl)cc2)n1 | 7.01 (≈ 22.8 µM) | 37 (≈ 121 µM)
2.08 (≈ 6.78 µM) |  |  |  | CCCC(CCC)NCc1coc(-c2ccc(Cl)cc2)n1 | 5.72 (≈ 18.6 µM) | 38.4 (≈ 125 µM)
1.74 (≈ 5.64 µM) |  |  |  | CCCCCC(C)NCc1coc(-c2ccc(F)c(F)c2)n1 (stereo not drawn) | 6.34 (≈ 20.6 µM) | 37 (≈ 120 µM)
1.14 (≈ 3.54 µM) |  |  |  | CCCCCC(C)NCc1coc(-c2cccc3ccccc23)n1 (stereo not drawn) | 6.56 (≈ 20.3 µM) | 16 (≈ 49.6 µM)
2.97 (≈ 9.63 µM) |  |  |  | CCCCCC(C)NCc1coc(-c2ccc(F)cc2F)n1 (stereo not drawn) | 12.4 (≈ 40.3 µM) | > 50
1.45 (≈ 4.07 µM) |  |  |  | CCCCCC(C)NCc1coc(-c2cccc(OC(F)(F)F)c2)n1 (stereo not drawn) | 6.48 (≈ 18.2 µM) | > 50
 | 16 | 53 |  | CCCCc1ccc(-c2nc(CNCc3ccc(OC)cc3)co2)cc1 | 3.13 (≈ 8.93 µM) | 
4.08 (≈ 13.2 µM) |  |  |  | CCCCCC(C)NCc1coc(-c2cccc(F)c2F)n1 (stereo not drawn) | 10.7 (≈ 34.5 µM) | > 50
3.62 (≈ 13.3 µM) |  |  |  | CCCCCC(C)NCc1ccc(-c2ccccc2)o1 (stereo not drawn) | 7.14 (≈ 26.3 µM) | 32 (≈ 118 µM)
> 5 |  |  |  | CCCCCC(C)NCc1noc(-c2ccccc2)n1 (stereo not drawn) | 30.7 (≈ 112 µM) | 50 (≈ 183 µM)
4.05 (≈ 14.2 µM) |  |  |  | CCCCCC(C)NCc1cc(-c2ccccc2)n(C)n1 (stereo not drawn) | 12.8 (≈ 45 µM) | 50 (≈ 175 µM)
1.71 (≈ 5.55 µM) |  |  |  | CCCCCC(C)NCc1coc(-c2cc(F)cc(F)c2)n1 (stereo not drawn) | 7.08 (≈ 23 µM) | 42 (≈ 136 µM)
4.83 (≈ 15.7 µM) |  |  |  | CCCCCC(C)NCc1coc(-c2c(F)cccc2F)n1 (stereo not drawn) | 18.7 (≈ 60.6 µM) | > 50
3.38 (≈ 11.8 µM) |  |  |  | CCCCCC(C)NCc1cc(-c2ccccc2)nn1C (stereo not drawn) | 12.7 (≈ 44.5 µM) | 50 (≈ 175 µM)
0.81 (≈ 2.88 µM) |  |  |  | CCCCCC(C)NCc1cccc(-c2ccccc2)c1 (stereo not drawn) | 3.39 (≈ 12 µM) | > 50
